Biological target: T1, human ACC2 (Homo sapiens, UniProt O00763)
T1 construct: made in house; host or cells: insect cells (baculoviral expression system)
Experiment: ACC2 assay, spectrophotometric 384 well assay (NADH-linked, coupled lactate dehydrogenase/pyruvate kinase)
Assay type: biochemical
Conditions: ACC2 assay; human ACC2 construct lacking 128 N-terminal amino acids; 25° C., 340 nm, 15 minutes; read-out: IC50
Procedure: Spectrophotometric 384 Well Assay
Malonyl CoA formation by acetyl CoA carboxylases is stoichometrically linked to the consumption of ATP. ACC2 activity is measured in a NADH-linked kinetic method measuring ADP generated during the ACC reaction using a coupled lactate dehydrogenase/pyruvate kinase reaction.
For biological testing, a human ACC2 construct which lacks the 128 amino acids at the N-terminus for increased solubility (nt 385-6966 in Genbank entry AJ575592) is cloned. The protein is then expressed in insect cells using a baculoviral expression system. Protein purification is performed by anion exchange.
All compounds are dissolved in dimethyl sulfoxide (DMSO) to a concentration of 10 mM.
Assay reactions are then carried out in 384-well plates, with hACC2 in an appropriate dilution and at final assay concentrations (f.c.) of 100 mM Tris (pH 7.5), 10 mM trisodium citrate, 25 mM KHCO3, 10 mM MgCl2, 0.5 mg/ml BSA, 3.75 mM reduced L-glutathione, 15 U/ml lactate dehydrogenase, 0.5 mM phosphoenolpyruvate, 15 U/ml pyruvate kinase, compounds at different concentrations at final DMSO concentrations of 1%.
The enzymatic reaction is then started by addition of a mixture of NADH, acetyl Coenzyme A (both […].) and ATP (500 uM f.c.). The decrease of the optical density (slope S) is then determined at 25° C. at a wavelength of 340 nm over 15 minutes in a spectrophotometric reader.
Each assay microtiter plate contains wells with vehicle instead of compound as controls for the non-inhibited enzyme (100% CTL; ‘HIGH’) and wells without acetyl-CoA as controls for non-specific NADH degradation (0% CTL; ‘LOW’).
The slope S is used for calculation of % CTL=(S(compound)−S(‘LOW’))/(S(‘HIGH’)−S(‘LOW’))100. Compounds will give values between 100% CTL (no inhibition) and 0% CTL (complete inhibition).
For IC50 value determination, the sample slope in the presence of the test compound after subtraction of the low controls (S(compound)−S(‘LOW’)) are used.
An IC50 value is derived from the compound slopes at different dosages after subtraction of the low controls (S(compound)−S(‘LOW’)) by non-linear regression curve fitting (equation y=(A+((B−A)/(1+((C/x)^D))))).

T1 sequence (O00763 129-2458 limits assumed): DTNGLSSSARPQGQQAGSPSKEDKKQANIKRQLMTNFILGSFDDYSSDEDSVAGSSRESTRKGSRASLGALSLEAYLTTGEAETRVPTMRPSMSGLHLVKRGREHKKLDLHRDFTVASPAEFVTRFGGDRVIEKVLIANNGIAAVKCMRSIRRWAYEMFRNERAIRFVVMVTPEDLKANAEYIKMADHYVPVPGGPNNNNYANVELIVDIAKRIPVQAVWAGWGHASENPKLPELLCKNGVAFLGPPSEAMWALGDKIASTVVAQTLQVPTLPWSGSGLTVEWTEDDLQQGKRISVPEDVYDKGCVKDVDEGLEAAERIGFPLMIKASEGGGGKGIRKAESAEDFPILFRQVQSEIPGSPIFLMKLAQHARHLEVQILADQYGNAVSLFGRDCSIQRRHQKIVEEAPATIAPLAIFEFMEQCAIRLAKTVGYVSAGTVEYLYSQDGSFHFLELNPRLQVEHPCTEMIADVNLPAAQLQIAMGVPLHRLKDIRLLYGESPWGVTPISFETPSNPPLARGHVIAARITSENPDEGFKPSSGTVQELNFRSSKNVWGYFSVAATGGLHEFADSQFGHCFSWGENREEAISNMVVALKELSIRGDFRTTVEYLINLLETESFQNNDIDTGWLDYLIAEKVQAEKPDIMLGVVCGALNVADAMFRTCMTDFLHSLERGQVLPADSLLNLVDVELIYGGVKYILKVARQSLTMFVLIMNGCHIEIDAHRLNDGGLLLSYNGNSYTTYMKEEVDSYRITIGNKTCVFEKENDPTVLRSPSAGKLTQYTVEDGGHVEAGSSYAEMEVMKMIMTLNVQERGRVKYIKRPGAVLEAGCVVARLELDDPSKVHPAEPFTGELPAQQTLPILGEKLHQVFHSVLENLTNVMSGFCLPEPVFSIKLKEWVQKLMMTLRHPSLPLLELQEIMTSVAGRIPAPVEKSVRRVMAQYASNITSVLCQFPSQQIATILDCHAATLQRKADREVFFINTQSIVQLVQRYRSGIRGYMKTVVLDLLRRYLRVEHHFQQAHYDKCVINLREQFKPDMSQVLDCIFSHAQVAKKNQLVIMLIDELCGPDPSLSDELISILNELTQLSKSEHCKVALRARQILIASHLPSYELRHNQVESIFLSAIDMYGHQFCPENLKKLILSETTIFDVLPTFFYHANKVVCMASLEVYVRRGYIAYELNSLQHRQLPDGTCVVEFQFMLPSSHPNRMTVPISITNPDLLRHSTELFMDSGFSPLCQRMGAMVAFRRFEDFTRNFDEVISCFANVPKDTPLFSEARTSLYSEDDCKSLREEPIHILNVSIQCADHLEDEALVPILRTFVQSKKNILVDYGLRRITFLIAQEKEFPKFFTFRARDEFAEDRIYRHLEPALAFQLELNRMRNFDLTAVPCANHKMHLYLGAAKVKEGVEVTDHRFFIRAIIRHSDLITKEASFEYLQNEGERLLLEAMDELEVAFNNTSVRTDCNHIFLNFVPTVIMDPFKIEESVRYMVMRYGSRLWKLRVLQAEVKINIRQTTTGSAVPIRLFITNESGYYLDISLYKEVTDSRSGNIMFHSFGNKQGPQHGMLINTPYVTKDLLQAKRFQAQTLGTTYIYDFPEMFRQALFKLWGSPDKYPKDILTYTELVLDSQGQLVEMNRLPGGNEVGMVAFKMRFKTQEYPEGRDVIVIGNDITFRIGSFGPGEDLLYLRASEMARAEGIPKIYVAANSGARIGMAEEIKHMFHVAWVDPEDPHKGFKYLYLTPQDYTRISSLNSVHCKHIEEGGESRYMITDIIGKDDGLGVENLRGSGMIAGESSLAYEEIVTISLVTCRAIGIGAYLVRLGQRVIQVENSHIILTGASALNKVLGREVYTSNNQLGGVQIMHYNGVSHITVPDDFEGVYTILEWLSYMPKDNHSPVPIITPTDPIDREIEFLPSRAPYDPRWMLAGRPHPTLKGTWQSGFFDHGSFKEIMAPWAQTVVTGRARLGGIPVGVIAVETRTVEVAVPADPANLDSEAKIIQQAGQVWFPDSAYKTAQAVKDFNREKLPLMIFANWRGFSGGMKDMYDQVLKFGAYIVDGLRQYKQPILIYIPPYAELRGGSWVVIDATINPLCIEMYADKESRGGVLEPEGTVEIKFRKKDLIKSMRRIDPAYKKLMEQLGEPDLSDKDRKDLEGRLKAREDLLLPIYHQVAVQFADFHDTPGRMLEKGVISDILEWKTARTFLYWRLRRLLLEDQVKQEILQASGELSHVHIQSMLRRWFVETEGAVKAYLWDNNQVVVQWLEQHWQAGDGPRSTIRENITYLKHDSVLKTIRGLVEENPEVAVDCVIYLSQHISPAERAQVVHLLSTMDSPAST

Row | IC50 | Structure (SMILES)
1 | 2980 nM | CCOc1ccc(OC2CN(c3ccc([C@H](C)NC(=O)c4cn[nH]c4)cc3)C2)c(F)c1 [Example 8.2, (S)-1H-Pyrazole-4-carboxylic acid (1-{4-[3-(4-ethoxy-2-fluoro-phenoxy)-azetidin-1-yl]-phenyl}-ethyl)-amide]
2 | 1370 nM | C[C@H](NC(=O)OC(C)(C)C)c1ccc(N2CC(Oc3ccc(OCC4CC4)cc3)C2)cc1 [Example 8.3, (S)-(1-{4-[3-(4-Cyclopropylmethoxy-phenoxy)-azetidin-1-yl]-phenyl}-ethyl)-carbamic acid tert-butyl ester]
3 | 110 nM | CCOc1ccc(OC2CN(c3ccc([C@H](C)NC(=O)c4sc(NC(C)=O)nc4C)cc3)C2)c(F)c1 [Example 8.4, (S)-2-Acetylamino-4-methyl-thiazole-5-carboxylic acid (1-{4-[3-(4-ethoxy-2-fluoro-phenoxy)-azetidin-1-yl]-phenyl}-ethyl)-amide]
4 | 140 nM | CC(=O)N[C@@H](C)c1ccc(N2CC(Oc3ccc(OCc4ccccc4)cc3)C2)cc1 [Example 8.5, (S)—N-(1-{4-[3-(4-Benzyloxy-phenoxy)-azetidin-1-yl]-phenyl}-ethyl)-acetamide]
5 | 170 nM | CCOc1ccc(OC2CN(c3ccc(C(C)NC(C)=O)cn3)C2)cc1 (centres unmarked) [Example 8.6, N-(1-{6-[3-(4-Ethoxy-phenoxy)-azetidin-1-yl]-pyridin-3-yl}-ethyl)-acetamide]
6 | 2240 nM | CC(=O)N[C@@H](C)c1ccc(N2CC(Oc3cc(OCc4ccccc4)ccn3)C2)cc1 [Example 8.7, (S)—N-(1-{4-[3-(4-Benzyloxy-pyridin-2-yloxy)-azetidin-1-yl]-phenyl}-ethyl)-acetamide]
7 | 810 nM | CC(=O)N[C@@H](C)c1ccc(N2CC(Oc3ccc(C(F)(F)F)cn3)C2)cc1 [Example 8.8, (S)—N-(1-{4-[3-(5-Trifluoromethyl-pyridin-2-yloxy)-azetidin-1-yl]-phenyl}-ethyl)-acetamide]
8 | 70 nM | CC(=O)N[C@@H](C)c1ccc(N2CC(Oc3ccc(OC(C)C)cc3)C2)cc1 [Example 9.1, (S)—N-(1-{4-[3-(4-Isopropoxy-phenoxy)-azetidin-1-yl]-phenyl}-ethyl)-acetamide]
9 | 90 nM | CCOc1ccc(OC2CN(c3ccc([C@H](C)NC(C)=O)cc3)C2)cc1 [Example 9.2]
10 | 50 nM | CCCOc1ccc(OC2CN(c3ccc([C@H](C)NC(C)=O)cc3)C2)cc1 [Example 9.3]
11 | 40 nM | CC(=O)N[C@@H](C)c1ccc(N2CC(Oc3ccc(OC4CCC4)cc3)C2)cc1 [Example 9.4]
12 | 40 nM | CC(=O)N[C@@H](C)c1ccc(N2CC(Oc3ccc(OCC4CC4(F)F)cc3)C2)cc1 (some centres unmarked) [Example 9.5]
13 | 1280 nM | CC(=O)N[C@@H](C)c1ccc(N2CC(Oc3ccc(C)c(F)c3F)C2)cc1 [Example 10.1, (S)—N-(1-{4-[3-(2,3-Difluoro-4-methyl-phenoxy)-azetidin-1-yl]-phenyl}-ethyl)-acetamide]
14 | 780 nM | CC(=O)N[C@@H](C)c1ccc(N2CC(Oc3ccc(OC(F)(F)F)cc3)C2)cc1 [Example 10.2]
15 | 910 nM | CC(=O)N[C@@H](C)c1ccc(N2CC(Oc3ccc(-n4cccc4)cc3Cl)C2)cc1 [Example 10.3]
16 | 280 nM | COc1ccc(OC2CN(c3ccc([C@H](C)NC(C)=O)cc3)C2)c(F)c1 [Example 10.4]
17 | 640 nM | CC(=O)N[C@@H](C)c1ccc(N2CC(Oc3ccc(OC(C)(C)C)cc3)C2)cc1 [Example 10.5]
18 | 330 nM | CCOc1cc(F)c(OC2CN(c3ccc([C@H](C)NC(C)=O)cc3)C2)c(F)c1 [Example 10.6]
19 | 200 nM | CCOc1ccc(OC2CN(c3ccc([C@H](C)NC(C)=O)cc3)C2)c(F)c1F [Example 10.7]

Row | IC50 | Structure (SMILES)
20 | 740 nM | COc1ccc(OC2CN(c3ccc([C@H](C)NC(C)=O)cc3)C2)cn1 [Example 10.8]
21 | 120 nM | CCC(C)c1ccc(OC2CN(c3ccc([C@H](C)NC(C)=O)cc3)C2)cc1 (some centres unmarked) [Example 10.10]
22 | 100 nM | CC(=O)N[C@@H](C)c1ccc(N2CC(Oc3ccc4oc(C)cc4c3)C2)cc1 [Example 10.11]
23 | 790 nM | CC(=O)N[C@@H](C)c1ccc(N2CC(Oc3ccccc3)C2)cc1 [Example 10.12]
24 | 320 nM | CC(=O)N[C@@H](C)c1ccc(N2CC(Oc3ccc4c(c3)OCO4)C2)cc1 [Example 10.13]
25 | 610 nM | CC(=O)N[C@@H](C)c1ccc(N2CC(Oc3ccc(C)cc3)C2)cc1 [Example 10.14]
26 | 950 nM | CC(=O)N[C@@H](C)c1ccc(N2CC(Oc3ccccc3C)C2)cc1 [Example 10.15]
27 | 2230 nM | CC(=O)N[C@@H](C)c1ccc(N2CC(Oc3ccc(Cl)cc3F)C2)cc1 [Example 10.16]
28 | 110 nM | CC(=O)N[C@@H](C)c1ccc(N2CC(Oc3cc(C(F)(F)F)ccc3F)C2)cc1 [Example 10.17]
29 | 560 nM | COc1ccc(OC2CN(c3ccc([C@H](C)NC(C)=O)cc3)C2)c(F)c1F [Example 10.18]
30 | 140 nM | COCCOc1ccc(OC2CN(c3ccc([C@H](C)NC(C)=O)cc3)C2)cc1 [Example 10.19]
31 | 4400 nM | C[C@H](NC(=O)C1CC1)c1ccc(N2CC(Oc3ccc(OC(F)(F)F)cc3)C2)cc1 [Example 10.20]
32 | 3990 nM | COc1ccc(OC2CN(c3ccc([C@H](C)NC(=O)C4CC4)cc3)C2)c(F)c1 [Example 10.21]
33 | 1270 nM | C[C@H](NC(=O)C1CC1)c1ccc(N2CC(Oc3ccc(OC(C)(C)C)cc3)C2)cc1 [Example 10.22]
34 | 130 nM | CCOc1cc(F)c(OC2CN(c3ccc([C@H](C)NC(=O)C4CC4)cc3)C2)c(F)c1 [Example 10.23]
35 | 2260 nM | CCOc1ccc(OC2CN(c3ccc([C@H](C)NC(=O)C4CC4)cc3)C2)c(F)c1F [Example 10.24]
36 | 3370 nM | COc1ccc(OC2CN(c3ccc([C@H](C)NC(=O)C4CC4)cc3)C2)cn1 [Example 10.25]
37 | 370 nM | CCC(C)c1ccc(OC2CN(c3ccc([C@H](C)NC(=O)C4CC4)cc3)C2)cc1 (some centres unmarked) [Example 10.26]
38 | 170 nM | Cc1cc2cc(OC3CN(c4ccc([C@H](C)NC(=O)C5CC5)cc4)C3)ccc2o1 [Example 10.27]

Row | IC50 | Structure (SMILES)
39 | 2080 nM | C[C@H](NC(=O)C1CC1)c1ccc(N2CC(Oc3ccc4c(c3)OCO4)C2)cc1 [Example 10.28]
40 | 570 nM | COc1ccc(OC2CN(c3ccc([C@H](C)NC(C)=O)cc3)C2)c(Cl)c1 [Example 10.29]
41 | 1560 nM | CCOc1c(F)cc(OC2CN(c3ccc([C@H](C)NC(=O)C4CC4)cc3)C2)cc1F [Example 10.30]
42 | 300 nM | CCOc1c(F)cc(OC2CN(c3ccc([C@H](C)NC(C)=O)cc3)C2)cc1F [Example 10.31]
43 | 730 nM | COc1ccc(OC2CN(c3ccc([C@H](C)NC(C)=O)cc3)C2)cn1 [Example 10.32]
44 | 80 nM | CC(=O)N[C@@H](C)c1ccc(N2CC(Oc3ccnc(OCC4CC4)c3)C2)cc1 [Example 11.1, (S)—N-(1-{4-[3-(2-Cyclopropylmethoxy-pyridin-4-yloxy)-azetidin-1-yl]-phenyl}-ethyl)-acetamide]
45 | 270 nM | CC(=O)N[C@@H](C)c1ccc(N2CC(Oc3ccnc(O[C@@H]4CCOC4)c3)C2)cc1 [Example 11.2]
46 | 60 nM | CC(=O)N[C@@H](C)c1ccc(N2CC(Oc3ccnc(OCC(C)C)c3)C2)cc1 [Example 11.3]
47 | 100 nM | CC(=O)N[C@@H](C)c1ccc(N2CC(Oc3ccnc(OCC4CC4(F)F)c3)C2)cc1 (some centres unmarked) [Example 11.5]
48 | 150 nM | CC(=O)NC(C)c1ccc(N2CC(Oc3ccnc(OCC(F)F)c3)C2)cc1 (centres unmarked) [Example 11.6]
49 | 230 nM | CC(C)COc1cc(OC2CN(c3ccc(C(C)NC(=O)C4CC4)cc3)C2)ccn1 (centres unmarked) [Example 11.7]
50 | 810 nM | CC(=O)N[C@@H](C)c1ccc(N2CC(Oc3cccc(N(C)CC(C)(C)O)n3)C2)cc1 [Example 12.1, (S)—N-{1-[4-(3-{6-[(2-Hydroxy-2-methyl-propyl)-methyl-amino]-pyridin-2-yloxy}-azetidin-1-yl)-phenyl]ethyl}-acetamide]
51 | 1380 nM | CC(=O)N[C@@H](C)c1ccc(N2CC(Oc3cccc(OCC4CC4)n3)C2)cc1 [Example 12.2]
52 | 730 nM | CCCOc1cccc(OC2CN(c3ccc([C@H](C)NC(C)=O)cc3)C2)n1 [Example 12.3]
53 | 220 nM | CC(=O)N[C@@H](C)c1ccc(N2CC(Oc3cccc(N4CCC(C)CC4)n3)C2)cc1 [Example 12.4]
54 | 530 nM | CC(=O)N[C@@H](C)c1ccc(N2CC(Oc3cccc(C)n3)C2)cc1 [Example 12.5]
55 | 90 nM | CC(=O)N[C@@H](C)c1ccc(N2CC(Oc3cccc(N(C)C)n3)C2)cc1 [Example 12.6]
56 | 310 nM | CC(=O)N[C@@H](C)c1ccc(N2CC(Oc3cccc(OC4CCC4)n3)C2)cc1 [Example 12.7]

Source: patent publication US8530461B2 (Boehringer Ingelheim International GmbH, priority 2011, dated 2013)
